Values of other authors as cited in patent publication US20110230549A1, “PHARMACEUTICAL COMPOSITIONS FOR THE TREATMENT OF PAIN” (GW Pharma Limited, priority 2005, published 2011).

How the values were obtained:
[1] = system: PBQ-induced writhing in mice; settings: compared among cannabinoids and pre-cursors
[2] = system: patient with familial Mediterranean fever; settings: 50 mg

Structure (SMILES) | Effectiveness at reducing analgesia and inflammation [1] | Amount of analgesia that the patient required [2] | Inhibition of PBQ-induced writhing in mice ([1]; oral administration)
CCCCCc1cc(O)c2c(c1)OC(C)(C)c1ccc(C)cc1-2 [CBN] | least effective | – | –
CCCCCc1cc(O)c2c(c1)OC(C)(C)[C@@H]1CCC(C)=C[C@@H]21 [THC, delta-9-tetrahydrocannabinol] | least effective | highly significant reduction | –
C=C(C)[C@@H]1CCC(C)=C[C@H]1c1c(O)cc(CCCCC)cc1O [CBD, cannabidiol] | – | – | most effective
